Measured values as given in US5942502A, “Method of treating diseases resulting from calcium metabolism disorders” (priority 1998, dated 1999).
“Also recorded” adds a separate entry of the source. Read-outs that look alike come from different tables or passages of the source.

How the values were obtained:
female beagle dogs = test: Chronic dosing toxicity, three months oral; format: in vivo, dog (beagle)
Description: With respect to chronic dosing, a group of six female beagle dogs were given 0.3 mg/kg of either ST-630 or 1α-hydroxyvitamin D3 orally each day for three months.

[1] = Subjective and objective symptoms (incl. ESR) in the clinical studies of ST-630; format: in vivo, human
Text: 2) Questioning, auscultation, percussion
5. Subjective and objective symptoms

[2] = Overall safety / tolerance between effectiveness and toxicity in humans; format: in vivo, human
[3] = test system: vitamin D responsive systems of vitamin D-deficient animals; settings: cited from earlier work; for activity relative to 1,25-(OH)2 D3: vitamin D responsive systems, vitamin D-deficient animals, times that of 1,25-(OH)2 D3
male rats = test: Acute toxicity (LD50), single dose; format: in vivo, rat; settings: rats, from LD50
Text: (§1) LD50 data represent the dose administered resulting in the death of 50% of the test group.

[4] = Acute toxicity (LD50), single dose; format: in vivo, rat; settings: rat, in vivo; single (acute) dose, male rats, at 14 days
Text: as §1

Ovariectomized rats = test: Ovariectomized rat model: serum Ca and P, femur dry weight, ash weight and breaking load; format: in vivo, Female Fisher rats; settings: for Serum Pi / Breaking load (femur) / Serum Ca / Ash weight (femur) / Dry weight (femur): three times a week for 23 weeks, Mean ± SD; for Serum Pi: OVX 2.6 ± 0.4; for Breaking load (femur): OVX 9.0 ± 0.9; for Serum Ca: OVX 9.7 ± 0.2; for Ash weight (femur): OVX 285 ± 19; for Dry weight (femur): OVX 431 ± 26
Text: Female Fisher rats, 9-10 months old, were ovariectomized and were fed a vitamin D-deficient diet containing 0.45% calcium and 0.3% phosphorus. The rats were given 15IU of vitamin D3 orally once a week throughout this experiment. Four weeks after the surgery, the rats were orally adminstered three times a week for 23 weeks with ST-630 (30, 100 or 300 pmole/kg) or 1α-hydroxyvitamin D3 (100 or 300 pmole/kg).

[5] = Repeated-dose clinical study of ST-630 (7 days, postprandial); format: in vivo, human; settings: 1.0 μg/day for 7 days
Description: 4.1. Dosing schedule (postprandial administration)
*^1 : Blood samples are collected only immediately before
*^2 : Blood samples are collected only immediately before
*^3 : Only cereatinie are determined immediately before and 12 hr
after administration on day 1, immediately before and 12, 24, 48, 72, 96
and 120 hr after the last administration, and at followup examination. On
days 2-6, blood samples are collected only immediately before
ST-630 was administered postprandially at a daily dose of 1.0 μg for 7 days.

[6] = Single-dose clinical study of ST-630: urinary excretions of electrolytes; format: in vivo, human
Text: (3) Urinalysis: pH, occult blood, protein, glucose, bilirubin, urobilinogen, sediment and creatinine clearance (24-hour method)
(2) Urinary excretion ST-630, Ca, P, Mg, Na, K, creatinine, c-AMP*^3 and hydroxyproline*^3

[7] = Study of dietary effect on the absorption of ST-630 (crossover); format: in vivo, human; settings: 2.0 μg, postprandial (30 min after meal) compared with fasting (FIG. 13)
Description: (§2) (1) Serum concentrations: ST-630, Ca, P, Mg and Al-P
*: Administration at 30 min after meal.
The dietary effect on the absorption of ST-630 was studied by the crossover method at the dose of 2.0 μg.

[8] = Single-dose clinical study of ST-630: blood biochemistry / serum electrolytes; format: in vivo, human
Text: (2) Blood biochemistry: Total protein fraction, BUN, creatinine, total cholesterol, neutral fat, phospholipid, serum electrolytes (Na, K, Cl, Ca, P, Mg), Al-P, GOT, GPI, LDH, γ-GTP, CPK, blood glucose, HBs antigen/antibody*^1, serologic test for syphilis, activated partial thrombo-plastin time *^2 and prothrombin time *^2
as §2

[9] = 0.0125 μg single dose, subject 1, last value, no date
[10] = 2.0 μg single dose, subject 8, last value, no date
[11] = vitamin D-like activity compared with 1,25-dihydroxycholecalciferol
[12] = compared with 1α-hydroxyvitamin D3
[13] = dose response over the doses tested
[14] = single dose 0.25, 0.5, 1 and 2 μg/man (FIGS. 1-4)
[15] = single doses 0.0125 μg to 2.0 μg

C=C1/C(=C\C=C2/CCC[C@]3(C)[C@@H]([C@H](C)CCCC(O)(C(F)(F)F)C(F)(F)F)CC[C@@H]23)C[C@@H](O)C[C@@H]1O [ST-630, 26,26,26,27,27,27-hexafluoro-1α,25-dihydroxycholecalciferol]
deaths (female beagle dogs; 0.3 mg/kg orally each day for three months): all six dogs
toxicity relative to 1α-hydroxyvitamin D3 (female beagle dogs; conclusion for rats and dogs): much more toxic
ESR 1 h ([1]; 0.0125 μg single dose, subject 1, date 2/4 (before: 3)): 3
ESR 2 h ([1]; 0.0125 μg single dose, subject 1, date 2/4 (before: 7)): 8
ESR 1 h ([1]; 0.0125 μg single dose, subject 1, date 2/8 (before: 3)): 3
ESR 2 h ([1]; 0.0125 μg single dose, subject 1, date 2/8 (before: 7)): 8
ESR 1 h ([1]; 0.0125 μg single dose, subject 1, follow-up examination 2/15 (before: 3)): 13
ESR 2 h ([1]; 0.0125 μg single dose, subject 1, follow-up examination 2/15 (before: 7)): 34
ESR 1 h [1, 9]: 1
ESR 2 h [1, 9]: 8
ESR 1 h ([1]; 2.0 μg single dose, subject 8, date 8/15 (before: 5)): 4
ESR 2 h ([1]; 2.0 μg single dose, subject 8, date 8/15 (before: 8)): 8
ESR 1 h ([1]; 2.0 μg single dose, subject 8, date 8/19 (before: 5)): 4
ESR 2 h ([1]; 2.0 μg single dose, subject 8, date 8/19 (before: 8)): 11
ESR 1 h ([1]; 2.0 μg single dose, subject 8, follow-up examination 8/27 (before: 5)): 11
ESR 2 h ([1]; 2.0 μg single dose, subject 8, follow-up examination 8/27 (before: 8)): 27
ESR 1 h [1, 10]: 3
ESR 2 h [1, 10]: 8
Symptom ([1]; repeated-dose study, 1.0 μg/day, 7 days, subjects 1-8): None and No symptom
increase in erythrocyte sedimentation rate, number of cases ([1]; single dose 0.0125 μg (Step 1)): one case
headache (symptom) ([1]; single dose 0.25 μg (Step 5)): Headache; also recorded: one case
increase in erythrocyte sedimentation rate, number of cases ([1]; single dose 2.0 μg (Step 8)): one case
Symptom ([1]; study of dietary effect, 2.0 μg, subjects 1-10): None and No symptom
calcium absorption [2]: promoted calcium absorption
hypercalcemia [2]: no hypercalcemia
safety [2]: no remarkable problem on safety
"window" or tolerance between effectiveness and toxicity in humans ([2]; up to 2.0 μg): relatively large
activity relative to 1,25-(OH)2 D3 ([3]; listed as 26,26,26,27,27,27-F6 -1,25-(OH)2 D3): at least ten times greater
activity relative to 1,25-(OH)2 D3 ([3]; listed as 26,26,26,27,27,27-hexafluoro derivative of 1α,25-dihydroxycholecalciferol): at least ten times greater
activity relative to 1,25-(OH)2 D3 ([3]; listed as 26,26,26,27,27,27-hexafluoro-1α,25-dihydroxyvitamin D3): about ten times more active
ability to mobilize calcium from bone [3, 11]: substantially greater
ability to stimulate calcium transport in the intestine [3, 11]: substantially greater
anti-rachitic activity according to the rat line test [3, 11]: substantially greater
toxicity relative to 1α-hydroxyvitamin D3 (male rats): about five times more toxic
LD50 at 336 h [4]: 0.043 mg/kg
Serum Pi (Ovariectomized rats; 30 pmole/kg p.o.): 3.6 ± 0.3 mg/100 ml
Breaking load (femur) (Ovariectomized rats; 30 pmole/kg p.o.): 9.7 ± 0.8 kg
Serum Ca (Ovariectomized rats; 30 pmole/kg p.o.): 9.9 ± 0.4 mg/100 ml
Ash weight (femur) (Ovariectomized rats; 30 pmole/kg p.o.): 298 ± 22 mg
Dry weight (femur) (Ovariectomized rats; 30 pmole/kg p.o.): 449 ± 29 mg
Serum Pi (Ovariectomized rats; 100 pmole/kg p.o.): 4.8 ± 0.2 mg/100 ml
Breaking load (femur) (Ovariectomized rats; 100 pmole/kg p.o.): 10.6 ± 0.5 kg
Serum Ca (Ovariectomized rats; 100 pmole/kg p.o.): 10.6 ± 04 mg/100 ml
Ash weight (femur) (Ovariectomized rats; 100 pmole/kg p.o.): 319 ± 12 mg
Dry weight (femur) (Ovariectomized rats; 100 pmole/kg p.o.): 472 ± 21 mg
Serum Pi (Ovariectomized rats; 300 pmole/kg p.o.): 5.3 ± 0.3 mg/100 ml
Breaking load (femur) (Ovariectomized rats; 300 pmole/kg p.o.): 12.4 ± 1.3 kg
Serum Ca (Ovariectomized rats; 300 pmole/kg p.o.): 11.7 ± 0.7 mg/100 ml
Ash weight (femur) (Ovariectomized rats; 300 pmole/kg p.o.): 362 ± 32 mg
Dry weight (femur) (Ovariectomized rats; 300 pmole/kg p.o.): 538 ± 47 mg
prevention of the decrease of ash weight of the femur (Ovariectomized rats; [12]): more potently
prevention of the decrease of breaking load of the femur (Ovariectomized rats; [12]): more potently
prevention of the decrease of dry weight of the femur (Ovariectomized rats; [12]): more potently
increase of mechanical strength of the bone (Ovariectomized rats; compared with 1α-hydroxyvitamin D3 at doses causing the same increase of serum calcium (FIG. 24)): more potently
serum calcium level (Ovariectomized rats; [13]): increased dose-dependently
serum phosphorus level (Ovariectomized rats; [13]): increased dose-dependently
serum Ca concentration change ([5]; postprandial): tended to be elevated slightly but the change was within the normal range
urinary Ca/Cr ratio ([5]; postprandial): increased with the number of dosings
recovery of urinary Ca/Cr ratio ([5]; after completion of administration): recovered to the control value immediately after completion of administration
total urinary Ca excretion ([6]; single dose 2.0 μg): increases
urinary Ca/Cr ratio ([6]; single dose 2.0 μg): increases
urinary electrolytes ([6]; single doses below 2.0 μg (FIGS. 5-12)): no significant increases
AUC (area under the serum concentration curve), postprandial versus fasting [7]: slightly higher
toxicity at higher doses in humans ([8]; 0.5 μg, 1 μg and 2 μg (FIGS. 2-4)): without toxicity problems
serum Ca change [8, 14]: No major change
serum Mg change [8, 14]: No major change
serum P change [8, 14]: No major change
blood biochemistry change [8, 15]: No change
serum electrolytes change [8, 15]: No change
